{"source": "paper PMC6340882", "about": "“Targeting protein kinase CK2 and CDK4/6 pathways with a multi-kinase inhibitor ON108110 suppresses pro-survival signaling and growth in mantle cell lymphoma and T-acute lymphoblastic leukemia” (Oncotarget, 2018)", "key": {"CDK4/CyclinD1": {"molecular_target": "CDK4/CyclinD1 (Homo sapiens, UniProt P11802)", "sequence (P11802 whole entry)": "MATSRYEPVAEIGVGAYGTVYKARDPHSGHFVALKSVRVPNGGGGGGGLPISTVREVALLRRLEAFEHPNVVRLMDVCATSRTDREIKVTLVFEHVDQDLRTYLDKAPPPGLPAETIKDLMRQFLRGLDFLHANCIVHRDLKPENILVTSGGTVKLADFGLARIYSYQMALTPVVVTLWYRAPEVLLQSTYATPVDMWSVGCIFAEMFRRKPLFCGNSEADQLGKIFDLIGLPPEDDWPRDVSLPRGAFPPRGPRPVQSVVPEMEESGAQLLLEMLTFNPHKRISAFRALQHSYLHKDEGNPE", "sequence (P24385 whole entry partner)": "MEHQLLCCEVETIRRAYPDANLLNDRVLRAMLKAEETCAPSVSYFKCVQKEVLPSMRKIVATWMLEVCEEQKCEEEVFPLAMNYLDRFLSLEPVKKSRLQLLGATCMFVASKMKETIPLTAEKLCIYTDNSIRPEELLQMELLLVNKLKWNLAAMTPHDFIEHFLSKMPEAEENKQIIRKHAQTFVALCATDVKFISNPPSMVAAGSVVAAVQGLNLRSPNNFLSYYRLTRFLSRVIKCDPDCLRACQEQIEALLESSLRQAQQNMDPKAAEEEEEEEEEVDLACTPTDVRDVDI", "experiment": "Kinase panel profiling (Reaction Biology Corp)", "type": "biochemical", "settings": "CDK4/CyclinD1, kinase inhibition profile", "experimental": "(§1) Initial testing of ON108110 against a panel of 285 functional kinases was performed by Reaction Biology Corp (Malvern, PA). Recombinant CDK4/CYCLIN D1 or CK2α1 were mixed with their respective synthetic peptide substrates (10ng) and incubated with DMSO or increasing concentrations of ON108110 in 20μl kinase buffer [50mM Tris-HCl (pH 7.5), 10mM MgCl2, 1mM EGTA, 2mM DTT and 0.01% NP-40] for 30 min. at room temperature. Kinase reactions were carried out for 20 min at 30°C in the presence of 5μl of substrate-ATP mixture (1μg RB, 20μM ATP, 20μCi γ-^32P-ATP). The reactions were incubated at 30°C for 20 minutes, terminated by addition of 0.5M O-phosphoric acid and 10μl of the reaction mixture was spotted on P-30 Filtermat membranes (Wallac #1450-523). The filtermat was air-dried, blocked with methanol for 2 minutes followed by three washes with 75mM phosphoric acid. The filtermat was then air-dried and analyzed using a phosphoimager. Densitometric values were plotted as a function of log drug concentration using Prism 4 GraphPad software and the IC50 values determined by plotting sigmoidal non-linear regression curves with variable slope (n=3)."}, "CDK4/CyclinD3": {"molecular_target": "CDK4/CyclinD3 (Homo sapiens, UniProt P11802)", "sequence (P11802 whole entry)": "as the sequence (P11802 whole entry) above", "sequence (P30281 whole entry partner)": "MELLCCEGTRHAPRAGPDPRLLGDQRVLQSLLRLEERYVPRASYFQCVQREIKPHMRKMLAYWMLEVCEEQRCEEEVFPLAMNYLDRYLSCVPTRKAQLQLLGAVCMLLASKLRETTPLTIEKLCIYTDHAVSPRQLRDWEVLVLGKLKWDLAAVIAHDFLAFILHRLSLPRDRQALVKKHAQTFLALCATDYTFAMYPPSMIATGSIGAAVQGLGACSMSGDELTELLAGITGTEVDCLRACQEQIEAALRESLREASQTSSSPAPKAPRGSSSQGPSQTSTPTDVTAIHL", "experiment": "Kinase panel profiling (Reaction Biology Corp)", "type": "biochemical", "settings": "CDK4/CyclinD3, kinase inhibition profile", "experimental": "as §1"}, "CK2α2": {"molecular_target": "CK2α2 (Homo sapiens, UniProt P19784)", "sequence (P19784 whole entry)": "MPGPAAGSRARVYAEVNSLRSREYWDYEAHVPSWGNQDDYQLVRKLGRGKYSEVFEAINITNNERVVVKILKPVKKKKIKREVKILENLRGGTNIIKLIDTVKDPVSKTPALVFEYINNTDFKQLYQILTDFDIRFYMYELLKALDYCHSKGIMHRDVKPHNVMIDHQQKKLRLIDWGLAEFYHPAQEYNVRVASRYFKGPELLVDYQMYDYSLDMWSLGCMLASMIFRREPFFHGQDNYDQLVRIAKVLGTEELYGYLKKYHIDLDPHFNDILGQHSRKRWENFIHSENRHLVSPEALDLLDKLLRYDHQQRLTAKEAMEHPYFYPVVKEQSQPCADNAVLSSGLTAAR", "experiment": "Kinase panel profiling (Reaction Biology Corp)", "type": "biochemical", "settings": "CK2α2, kinase inhibition profile", "experimental": "as §1"}, "PIM3": {"molecular_target": "PIM3 (Homo sapiens, UniProt Q86V86)", "experiment": "Kinase panel profiling (Reaction Biology Corp)", "type": "biochemical", "settings": "PIM3, kinase inhibition profile", "experimental": "as §1"}, "recombinant CK2α1": {"molecular_target": "T1, recombinant CK2α1 (Homo sapiens, UniProt P68400)", "T1 construct": "Amino acid residues 3-335 of CK2α1 were cloned using BamH1 and HindIII into pET28bsmt3-SUMO fusion vector; SUMO (N); made in house; host or cells: Escherichia coli BL21-DE3 (RIL)", "T1 sequence (P68400 3-335)": "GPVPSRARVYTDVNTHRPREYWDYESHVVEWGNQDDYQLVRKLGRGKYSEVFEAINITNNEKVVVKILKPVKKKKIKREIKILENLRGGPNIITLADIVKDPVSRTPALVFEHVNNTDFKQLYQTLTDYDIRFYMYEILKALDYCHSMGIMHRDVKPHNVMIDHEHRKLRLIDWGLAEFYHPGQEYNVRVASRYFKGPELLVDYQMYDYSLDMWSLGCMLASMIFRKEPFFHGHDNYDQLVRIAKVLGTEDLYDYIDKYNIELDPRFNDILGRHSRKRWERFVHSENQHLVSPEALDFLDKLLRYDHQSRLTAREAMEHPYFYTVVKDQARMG", "experiment": "Microscale thermophoresis (MST)", "type": "binding", "settings": "16 concentrations 0.1nM-1000nM, average of 3 independent experiments", "experimental": "Purified His6-CK2α1 (kinase domain) was labeled with red NT-647 cysteine-reactive dye according to the manufacturer (NanoTemper Technologies). A fixed quantity of NT-647-labeled CK2α1 (50nM) was incubated with the indicated concentrations of ON108110 in binding buffer (20 mM Tris-HCl, pH 7.5, 150 mM NaCl, 1 mM MgCl2, 0.1% Triton X-100, and 2% DMSO) at room temperature in the dark for 30 min. Samples were then loaded into hydrophilic capillaries (NanoTemper Technologies) and binding was measured using the Monolith NT.115 (NanoTemper Technologies). Binding data were analyzed using thermophoresis or hot/cold analysis, as previously described prior to normalization to either ΔFnorm[%(10^*(Fnorm(bound)-Fnorm(unbound)) or fraction bound (ΔFnorm[%]/amplitude). Dissociation constants (Kd) were calculated using built-in curve-fitting software provided by the manufacturer (NanoTemper Technologies)."}, "Granta-519 and CEM cells": {"tested_on": "Granta-519 and CEM cells", "experiment": "Cell cycle analysis, propidium iodide staining and flow cytometry", "type": "cell-based, human", "settings": "0.5-2.0μM, 24 hours", "experimental": "Figure 5 Modulation of cell cycle expression and induction of apoptosis in ON 108110-treated MCL and T-ALL cell lines (A) CEM and Granta-519 cells were treated with either DMSO or increasing concentrations of ON108110 (0.5-2.0μM) for 24 hours. Cell cycle analysis was performed using propidium iodide staining. (B) CEM, HBL-2, RS4-11 and Granta-519 cells were treated with either DMSO (vehicle) or increasing concentrations of ON108110 (0.5-2.0 μM) for 24 hours and stained with Annexin V/DAPI (C) Graphical representation of apoptosis induced as shown in B. (D) Granta-519 cells were treated with increasing concentrations of ON108110 for 24 hours. Caspase activation and viability were measured using the Caspase Glo 3/7 and Cell Titer Blue assay kits, respectively. […]\nTo determine cell cycle distribution, 70% ethanol fixed cells were washed with phosphate buffered saline (PBS), resuspended in PBS and incubated with RNase and propidium iodide at 37°C for 20 min. DNA content was analyzed on a FACS Calibur (BD Immunocytometry Systems) and the data analyzed using Flowjo software (Treestar). Annexin V staining was measured using the FITC Annexin V Apoptosis Detection Kit I (BD Biosciences) according to the instructions of the manufacturer except that DAPI was substituted at a concentration of […] to measure DNA content."}, "[1]": {"tested_on": "phospho-PTEN Ser380 and AKT Ser129 in CEM and Granta-519 cells", "experiment": "Western blot of CK2-mediated PTEN and AKT phosphorylation", "type": "cell-based, human", "settings": "CEM and Granta-519, 24 hours", "experimental": "Figure 6 Inhibition of CK2/CDK4 mediated signaling by ON108110 (A) CEM and (B) Granta-519 cells were treated with increasing concentrations of ON 108110 for 24 hours. Whole cell extracts were subjected to western blot analysis using antibodies directed against the indicated proteins. GAPDH is shown as a loading control.\nCells were grown as indicated, lysed in lysis buffer (20mM Tris, pH 8.0/ 137mM NaCl/ 10% glycerol/ 1% NP-40) supplemented with 1X protease and phosphatase inhibitor cocktail on ice and resolved by SDS-PAGE. The proteins were transferred to a nitrocellulose membrane and subjected to Western blot analysis using the indicated antibodies. Proteins were visualized using an Odyssey imaging system (LI-COR Biosciences)."}}, "data": [{"smiles": "CC(=O)Oc1ccc(/C=C2\\Sc3ccc(F)cc3NC2=O)cc1[N+](=O)[O-]", "note": "[ON108110]", "values": [{"measurement": "IC50", "setting": "CDK4/CyclinD1", "result": 11, "unit": "nM"}, {"measurement": "IC50", "setting": "CDK4/CyclinD3", "result": 15, "unit": "nM"}, {"measurement": "IC50", "setting": "CK2α2", "result": 2, "unit": "nM"}, {"measurement": "IC50", "setting": "PIM3", "result": 2, "unit": "nM"}, {"measurement": "Kd", "setting": "recombinant CK2α1", "result": 2.5, "unit": "nM"}, {"measurement": "effect on cell cycle progression", "setting": "Granta-519 and CEM cells", "result": "rapid accumulation of the cells in the G1 phase"}, {"measurement": "level of AKT Ser129", "setting": "[1]", "result": "reduction"}, {"measurement": "level of phospho-PTEN Ser380", "setting": "[1]", "result": "lower levels"}]}]}
